What was measured:
SHR [1] = assay: Hepatic fibrosis in SHR (Masson's trichrome); type: in vivo, rat; conditions: for Tissue architecture of portal tracts in Masson's tri-chrome stained liver sections: SHR treated rats vs control, FIG. 14; for Fibrosis in the liver compared to 18 week controls: SHR, 500 pmol/kg/min, 4 weeks, FIG. 13, *p<0.05, **p<0.025, ***p<0.01
Description: (§1) Fourteen week old SHR (on a 2.2% salt diet; Glen Forrest Stockfeeders) were randomly assigned to zero time control (14 week old rats), test compound treatment drinking solution (500 pmol/kg/min in deionised distilled water) or control drinking solution (5% ethanol in deionised distilled water). The rats assigned to zero time control group (14 week old rats) were anaesthetised and had their kidneys and liver harvested while rats assigned to control and test compound treatment were weighed twice weekly and had their drinking solution intake monitored to allow adjustment of the test compound concentration in the drinking solution to maintain a constant dose over the 4-week study period. Blood pressure was measured twice weekly by tail cuff plethysmography (PowerLab, ADInstruments, Castle Hill, NSW, Australia). After 4 weeks rats were anaesthetised (18 week old rats), and their kidneys and liver harvested. To quantitate tissue fibrosis and/or fat content, tissue slices ≤3 mm thick were fixed in 10% buffered formalin for 24 hours, processed and embedded in paraffin. Three micron transverse sections were stained using Masson's trichrome stain. A minimum of 20 random fields at magnification ×20 from transverse sections (5 at each of 2 levels) were digitized and the degree of fibrosis and fat content determined as a percent of field area of each digitized image using Image-Pro Plus V.7 (Media Cybernetics, Bethesda, Md., USA) then averaged to determine the level of fibrosis and/or fat content for each rat.

SHR [2] = assay: Blood pressure in SHR by tail cuff plethysmography; type: in vivo, rat; conditions: SHR on 2.2% salt diet; 500 pmol/kg/min in drinking solution; 4 weeks; systolic, FIG. 11
Description: Fourteen week old SHR (on a 2.2% salt diet; Glen Forrest Stockfeeders) were randomly assigned to zero time control (14 week old rats), test compound treatment drinking solution (500 pmol/kg/min in deionised distilled water) or control drinking solution (5% ethanol in deionised distilled water). The rats assigned to zero time control group (14 week old rats) were anaesthetised and had their kidneys and liver harvested while rats assigned to control and test compound treatment were weighed twice weekly and had their drinking solution intake monitored to allow adjustment of the test compound concentration in the drinking solution to maintain a constant dose over the 4-week study period. Blood pressure was measured twice weekly by tail cuff plethysmography (PowerLab, ADInstruments, Castle Hill, NSW, Australia). After 4 weeks rats were anaesthetised (18 week old rats), and their kidneys and liver harvested.

[3] = test system: A10 embryonic vascular smooth muscle cells; assay: xCELLigence cell impedance in A10 vascular smooth muscle cells; type: cell-based; conditions: test compounds at 62.5, 125 or 250 μM; FIG. 8; negative response = direct vasodilator
Description: The xCELLigence SP system (Roche) was used to measure changes in cellular impedance (cell index) following the treatment of A10 embryonic vascular smooth muscle cells (ATCC, CRL-1476) with test compound. In this in vitro cell based experimental system a negative impedance profile correlates with blood pressure reduction in rats—a decrease in impedance is associated with vasodilatation and an increase in impedance is associated with vasoconstriction (Stallaert W, Dorn J F, van der Westhuizen E, Audet M & Bouvier M. Impedance responses reveal β-adrenergic signaling […] and allow classification of ligands with distinct signalling profiles PLoS ONE 2012; 7(1):e29420, doi:10.1371/journal.pone.0029420).
(§2) Briefly, 50 μl of cell culture medium (DMEM low glucose supplemented with 10% fetal bovine serum at 37° C.) was added to each well of an E-Plate 96 (Roche), and the background impedance in each well was measured. 50 μl of A-10 cell suspension (10,000 cells/well) was then added to the appropriate wells of the E-Plate 96. Cell index was monitored for each well of the E-Plate 96 in RTCA SP Station within the cell culture incubator. After overnight incubation for 16-20 hours at 5% CO2 and 95% humidity, 100 μl of test compound solution (test compounds were prepared in DMSO and diluted with cell culture medium to a final DMSO concentration of 0.25%) was added to the appropriate wells of the E-Plate 96 and cell index values were measured immediately following compound treatment every 20 seconds for 3 hours. Cell index value is baseline-corrected by subtracting the cell index of vehicle-treated cells and normalized by dividing by the cell index at the time point immediately before compound addition. Baseline normalized cell index as a function of time is plotted using Roche RTCA software.
Compounds may achieve reductions in blood pressure by interaction with vascular smooth muscle cells causing these cells to relax resulting in vasodilatation and a reduction in blood pressure. These are termed direct vasodilators.

[4] = test system: bovine aortic endothelial cells; assay: xCELLigence cell impedance in bovine aortic endothelial cells; type: cell-based; conditions: test compounds at 62.5, 125 or 250 μM; FIG. 9; negative response = indirect vasodilator
Protocol: as §2
The xCELLigence SP system was also used to measure changes in cellular impedance following the treatment of bovine aortic endothelial cells (European Collection of Cell Cultures) with test compound. The method employed is the same for the A10 embryonic vascular smooth muscle cells described above but with the cell culture medium supplemented with 15% fetal bovine serum instead of 10%.
Compounds may interact with vascular endothelial cells causing the release of substances such as nitric oxide and endothelium-derived hyperpolarising factor, which in turn act on the vascular smooth muscle cells causing vasodilatation and lowering blood pressure. Such compounds are termed indirect vasodilators.

SHR [5] = assay: Kidney fibrosis in SHR (Masson's trichrome); type: in vivo, rat; conditions: SHR on 2.2% salt diet, 500 pmol/kg/min, 4 weeks; for Fibrosis in the kidney compared to 18 week controls: FIG. 12, *p<0.05
Description: as §1

[6] = test system: Rat (NRK-52E) renal proximal tubule cells; assay: Rescue of renal proximal tubule cells from cisplatin cytotoxicity (WST-8/CCK-8); type: cell-based; conditions: test compound 30 μM; cisplatin 5 μg/ml; 24 or 48 hours; FIG. 10
Protocol: Rat (NRK-52E) renal proximal tubule cells grown in DMEM+10% FBS+1% NEAA+2 mM glutamine were placed in 96 well plates at 10,000 cells/well and incubated at 37° C. with 5% CO2 overnight. Test compounds at a concentration of 30 μM were incubated with human or rat renal proximal tubule cells for 2 hours at 37° C. and 5% CO2. Cis-diamminedichloroplatinum[…] (cisplatin) was then added at […] and each cell population was then incubated for 24 or 48 hours at 37° C. with 5% CO2. Test compounds were maintained at their original concentrations. To assay the cytotoxic effects of cisplatin on the rat renal proximal tubule cells a highly water-soluble tetrazolium salt, WST-8, which is reduced by dehydrogenases in cells to produce formazan, a water-soluble, yellow-coloured indicator dye was used following the manufacturer's instructions (specifically the Cell Count Kit-8 (CCK-8) assay from Sigma). Plate absorbance of the WST-8 (CCK-8) reagent was then measured at 450 nm using a Thermo Scientific Multiskan EX plate reader.

SHR [7] = assay: Hepatic fat content in SHR; type: in vivo, rat; conditions: SHR on 2.2% salt diet; 500 pmol/kg/min; 4 weeks; FIG. 15, *p<0.05, **p<0.025, ***p<0.01
Description: as §1

Row | SMILES | Tissue architecture of portal tracts in Masson's tri-chrome stained liver sections (SHR [1]) | Fibrosis in the liver compared to 18 week controls (SHR [1]) | Blood pressure (SHR [2]) | impedance response for A10 vascular smooth muscle cells [3] | impedance response for bovine aortic endothelial cells [4] | Fibrosis in the kidney compared to 18 week controls (SHR [5]) | Cisplatin induced cell death in renal proximal tubular cells [6] | Fat in the liver compared to 18 week controls (SHR [7]) | Fibrosis in the kidney compared to 14 week controls (SHR [5]; FIG. 12, #p<0.05, reversal of established fibrosis)
1 | NC(=O)CCc1cc(-c2ccsc2)ccc1-c1cccc(O)c1 [Compound P8, 3-(3′-Hydroxy-4-(thiophen-3-yl)-[1,1′biphenyl]-2-yl)propanamide] | normal tissue architecture has been restored | decreased | reduced | Negative impedance responses | Negative impedance responses | decreased | decreased |  | 
2 | NC(=O)CCc1cc(-c2cn[nH]c2)ccc1-c1cccc(O)c1 [Compound P22, 3-(3′-Hydroxy-4-(1H-pyrazol-4-yl)-[1,1′-biphenyl]-2-yl)propanamide] |  | decreased | reduced |  | Negative impedance responses | decreased | decreased | reduced | 
3 | NC(=O)CCc1cc(-c2cncnc2)ccc1-c1cccc(O)c1 [Compound P26, 3-(3′-Hydroxy-4-(pyrimidin-5-yl)-[1,1-biphenyl]-2-yl)propanamide] | normal tissue architecture has been restored | decreased |  |  | Negative impedance responses | decreased | decreased | reduced | 
4 | NC(=O)CCc1cc(-c2cccnc2)ccc1-c1cccc(O)c1 [Compound P5, 3-(3′-Hydroxy-4-(pyridin-3-yl)-[1,1′-biphenyl]-2-yl)propanamide] |  |  | reduced | Negative impedance responses |  | decreased | decreased |  | decreased
5 | Cc1nc(C)c(-c2ccc(-c3cccc(O)c3)c(CCC(N)=O)c2)s1 [Compound P40, 3-(4-(2,4-Dimethylthiazol-5-yl)-3′-hydroxy-[1,1′biphenyl]-2-yl)propanamide] |  | decreased | reduced |  |  | decreased | decreased | reduced | 

Source: patent US10183908B2, “Compositions for the treatment of kidney and/or liver disease” (VECTUS BIOSYSTEMS LIMITED, priority 2015, dated 2019)
